Measurements: ChEMBL document CHEMBL4014283, “Structural insights of SmKDAC8 inhibitors: Targeting Schistosoma epigenetics through a combined structure-based 3D QSAR, in vitro and synthesis strategy” (Bioorg Med Chem, 2017)
The source made the active and inactive calls. The calls are words filed in the database; no cut-off is given here.

Tests used:
[1] = target: T1, Histone deacetylase 8 (Schistosoma mansoni) (UniProt A5H660); test: Inhibition of Schistosoma mansoni KDAC8 at 30 uM using (FAM)-labeled peptide as substrate after 60 mins by microfluidic assay
T1 sequence (whole entry): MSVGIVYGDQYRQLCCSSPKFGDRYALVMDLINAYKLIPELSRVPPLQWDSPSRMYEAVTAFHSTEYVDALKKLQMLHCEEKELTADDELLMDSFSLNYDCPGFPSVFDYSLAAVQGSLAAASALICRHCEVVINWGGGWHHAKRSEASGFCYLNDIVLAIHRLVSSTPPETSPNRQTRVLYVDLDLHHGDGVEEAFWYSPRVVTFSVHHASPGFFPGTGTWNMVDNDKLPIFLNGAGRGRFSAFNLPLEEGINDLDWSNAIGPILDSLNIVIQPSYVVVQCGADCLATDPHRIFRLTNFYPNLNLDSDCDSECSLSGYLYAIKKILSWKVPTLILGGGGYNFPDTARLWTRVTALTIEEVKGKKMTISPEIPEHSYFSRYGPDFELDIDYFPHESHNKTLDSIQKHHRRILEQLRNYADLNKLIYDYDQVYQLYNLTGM

Histone deacetylase 8 = target: T2, Histone deacetylase 8 (Schistosoma mansoni, UniProt A5H660); test: Inhibition of Schistosoma mansoni KDAC8 using (FAM)-labeled peptide as substrate after 60 mins by microfluidic assay
T2 sequence (A5H660 whole entry): T1 sequence (whole entry)

CC(C)[C@@H]1N=C(c2ccccc2)c2ccccc2NC1=O
inhibition [1]: 0% | IC50 (Histone deacetylase 8; read-out: IC50): > 30 µM

NC(=O)C[C@@H]1N=C(c2ccccc2)c2ccccc2N(CCCCC(=O)NO)C1=O
inhibition [1]: 0% | IC50 (Histone deacetylase 8; read-out: IC50): > 30 µM

COC(=O)CCCCN1C(=O)[C@H](C(C)C)N=C(c2ccccc2)c2ccccc21
inhibition [1]: 0% | IC50 (Histone deacetylase 8; read-out: IC50): > 30 µM

C[C@@H]1N=C(c2ccccc2)c2ccccc2NC1=O
inhibition [1]: 0% | IC50 (Histone deacetylase 8; read-out: IC50): > 30 µM

Nc1ccccc1NC(=O)c1ccc(CNC(=O)OCc2cccnc2)cc1 [ENTINOSTAT]
inhibition [1]: inactive | IC50 (Histone deacetylase 8; read-out: IC50): > 30 µM

CC(C)(C)SC[C@H]1N=C(c2ccccc2)c2ccccc2N(CCCCC(=O)O)C1=O
inhibition [1]: 0% | IC50 (Histone deacetylase 8; read-out: IC50): > 30 µM

CC(C)[C@@H]1N=C(c2ccccc2)c2ccccc2N(CCCCC(=O)O)C1=O
inhibition [1]: 0% | IC50 (Histone deacetylase 8; read-out: IC50): > 30 µM

O=C(CCCCCC(=O)N/N=C/c1ccc(-c2ccccc2)cc1)NO
IC50 (Histone deacetylase 8; read-out: pIC50 (converted)): 0.891 µM

CN(C)c1ccc(C(=O)NCCCCCCC(=O)NO)cc1
IC50 (Histone deacetylase 8; read-out: pIC50 (converted)): 3.16 µM

O=C1CN=C(c2ccccc2)c2ccccc2N1 [RO-052921]
inhibition [1]: 9.5% | IC50 (Histone deacetylase 8; read-out: IC50): > 30 µM

O=C(O)CC[C@H]1N=C(c2ccccc2)c2ccccc2NC1=O
inhibition [1]: 0% | IC50 (Histone deacetylase 8; read-out: IC50): > 30 µM

CCC(=O)CCCCC[C@@H]1NC(=O)C2CCCCN2C(=O)[C@H](C(C)CC)NC(=O)[C@H](Cc2cn(OC)c3ccccc23)NC1=O (stereo partly specified)
IC50 (Histone deacetylase 8; read-out: IC50): 28.8 µM

O=C(C[C@@H]1N=C(c2ccccc2)c2ccccc2NC1=O)NC(c1ccccc1)(c1ccccc1)c1ccccc1
inhibition [1]: 0% | IC50 (Histone deacetylase 8; read-out: IC50): > 30 µM

CC(C)(C)SC[C@H]1N=C(c2ccccc2)c2ccccc2N(CCCCC(=O)NO)C1=O
inhibition [1]: 18.5% | IC50 (Histone deacetylase 8; read-out: IC50): > 30 µM

Cc1ccc(CN(Cc2ccc(C(=O)NO)cc2)S(=O)(=O)c2ccc(F)c(C)c2)cc1
IC50 (Histone deacetylase 8; read-out: pIC50 (converted)): 5.62 µM

CC(C)C[C@@H]1N=C(c2ccccc2)c2ccccc2NC1=O
inhibition [1]: 0% | IC50 (Histone deacetylase 8; read-out: IC50): > 30 µM

CC(C)(C)OC(=O)CC[C@@H]1N=C(c2ccccc2)c2ccccc2N(CCCCC(=O)O)C1=O
inhibition [1]: 0% | IC50 (Histone deacetylase 8; read-out: IC50): > 30 µM

Cc1[nH]c2ccccc2c1CCNCc1ccc(/C=C/C(=O)NO)cc1 [PANOBINOSTAT]
IC50 (Histone deacetylase 8; read-out: IC50): 0.45 µM

Cc1c(C)c(S(=O)(=O)NC(=N)NCCC[C@@H]2N=C(c3ccccc3)c3ccccc3NC2=O)c(C)c2c1OC(C)(C)C2
inhibition [1]: 0% | IC50 (Histone deacetylase 8; read-out: IC50): > 30 µM

COC(=O)CCCCN1C(=O)[C@H](CCC(=O)OC(C)(C)C)N=C(c2ccccc2)c2ccccc21
inhibition [1]: 0% | IC50 (Histone deacetylase 8; read-out: IC50): > 30 µM

C[C@@H]1N=C(c2ccccc2)c2ccccc2N(CCCCC(=O)O)C1=O
inhibition [1]: 0% | IC50 (Histone deacetylase 8; read-out: IC50): > 30 µM

COC(=O)CCCCN1C(=O)[C@H](Cc2cc3ccccc3n2C(=O)OC(C)(C)C)N=C(c2ccccc2)c2ccccc21
inhibition [1]: 0% | IC50 (Histone deacetylase 8; read-out: IC50): > 30 µM

CC(C)(C)OC(=O)NCCCC[C@@H]1N=C(c2ccccc2)c2ccccc2NC1=O
inhibition [1]: 0% | IC50 (Histone deacetylase 8; read-out: IC50): > 30 µM

O=C(CCCCN1C(=O)[C@H](Cc2ccccc2)N=C(c2ccccc2)c2ccccc21)NO
inhibition [1]: 14.4% | IC50 (Histone deacetylase 8; read-out: IC50): > 30 µM

CC(=O)SCC/C=C/[C@@H]1CC(=O)NCc2ccc(cc2)C2=N[C@@](C)(CS2)C(=O)N[C@@H](C(C)C)C(=O)O1
inhibition [1]: inactive | IC50 (Histone deacetylase 8; read-out: IC50): > 30 µM

CC(C)(C)OC(=O)C[C@@H]1N=C(c2ccccc2)c2ccccc2N(CCCCC(=O)NO)C1=O
inhibition [1]: 38.8% | IC50 (Histone deacetylase 8; read-out: IC50): > 30 µM

O=C(CCCCN1C(=O)[C@H](Cc2cncn2C(c2ccccc2)(c2ccccc2)c2ccccc2)N=C(c2ccccc2)c2ccccc21)NO
inhibition [1]: 3.81% | IC50 (Histone deacetylase 8; read-out: IC50): > 30 µM

COC(=O)CCCCN1C(=O)[C@H](CC(C)C)N=C(c2ccccc2)c2ccccc21
inhibition [1]: 0% | IC50 (Histone deacetylase 8; read-out: IC50): > 30 µM

CSCC[C@@H]1N=C(c2ccccc2)c2ccccc2NC1=O
inhibition [1]: 0% | IC50 (Histone deacetylase 8; read-out: IC50): > 30 µM

O=C(CCCCN1C(=O)CN=C(c2ccccc2)c2ccccc21)NO
inhibition [1]: 39.7% | IC50 (Histone deacetylase 8; read-out: IC50): > 30 µM

CCCCCCCC(=O)SCC/C=C/[C@@H]1CC(=O)NCc2nc(cs2)C2=N[C@@](C)(CS2)C(=O)N[C@@H](C(C)C)C(=O)O1 [LARGAZOLE]
inhibition [1]: 4% | IC50 (Histone deacetylase 8; read-out: IC50): > 30 µM

COC(=O)CCCCN1C(=O)CN=C(c2ccccc2)c2ccccc21
inhibition [1]: 0% | IC50 (Histone deacetylase 8; read-out: IC50): > 30 µM

O=C(O)CCCCN1C(=O)[C@H](Cc2ccccc2)N=C(c2ccccc2)c2ccccc21
inhibition [1]: 0% | IC50 (Histone deacetylase 8; read-out: IC50): > 30 µM

NCCCC[C@@H]1N=C(c2ccccc2)c2ccccc2N(CCCCC(=O)NO)C1=O
inhibition [1]: 4.32% | IC50 (Histone deacetylase 8; read-out: IC50): > 30 µM

COC(=O)CCCCN1C(=O)[C@H](C)N=C(c2ccccc2)c2ccccc21
inhibition [1]: 0% | IC50 (Histone deacetylase 8; read-out: IC50): > 30 µM

CC(C)(C)OC(=O)CC[C@@H]1N=C(c2ccccc2)c2ccccc2NC1=O
inhibition [1]: 0% | IC50 (Histone deacetylase 8; read-out: IC50): > 30 µM

CC(C)C[C@@H]1N=C(c2ccccc2)c2ccccc2N(CCCCC(=O)O)C1=O
inhibition [1]: 0% | IC50 (Histone deacetylase 8; read-out: IC50): > 30 µM

CC(C)(C)OC(=O)n1cc(C[C@@H]2N=C(c3ccccc3)c3ccccc3NC2=O)c2ccccc21
inhibition [1]: 11.9% | IC50 (Histone deacetylase 8; read-out: IC50): > 30 µM
